Tests used:
[1] = test system: LTB4-induced dermal neutrophil chemotaxis (MPO activity); test: Guinea Pig LTB4-Induced Dermal Chemotaxis; assay type: in vivo; conditions: Cavia porcellus, method: 35 ng LTB4 intradermal, compound IV or IG, MPO at 4 hours, read-out: LTB4 antagonism: Guinea Pig LTB4 Induced Dermal Chemotaxis (IC50)
Method: Guinea Pig LTB4 -Induced Dermal Chemotaxis
Test compound was administered intravenously or intragastrically at various times prior to the injection of leukotriene B4 (LTB4). LTB4 was diluted in phosphate buffered saline (PBS) and 35 ng in 0.2 ml were injected intradermally into the shaven backs of anesthetized guinea pigs. PBS was injected as control. Four hours later, animals were sacrificed, skins removed and stored frozen (-70° C.). Injection sites were removed with a skin punch and mechanically homogenized (Polytron, Brinkmann Instruments). Myeloperoxidase (MPO), a marker enzyme for neutrophils, was extracted by 0.5% hexadecyltrimethylammonium bromide in 50 mM potassium phosphate buffer (pH 6.0), using sonication and freeze-thaw procedures. After centrifugation (40,000×g, 30 minutes), enzyme activities in the supernatants were assayed spectrophotometrically (A460) by measuring the decomposition of hydrogen peroxide with ortho-dianisidine after 15 minutes. […] In guinea pigs the level of MPO activity increased with the amount of LTB4 injected.

[2] = biological target: T1, guinea pig ileum (LTD4-induced contraction) (Cavia porcellus, UniProt Q2NNR5); test: LTD4 Antagonism in Guinea Pig Ileum; assay type: cell-based; conditions: pA2, negative log of antagonist concentration required to produce a dose-ratio of 2
T1 construct: Fresh segments of guinea pig ileum; from tissue; host or cells: guinea pig ileum segments
T1 sequence (Q2NNR5 1-340): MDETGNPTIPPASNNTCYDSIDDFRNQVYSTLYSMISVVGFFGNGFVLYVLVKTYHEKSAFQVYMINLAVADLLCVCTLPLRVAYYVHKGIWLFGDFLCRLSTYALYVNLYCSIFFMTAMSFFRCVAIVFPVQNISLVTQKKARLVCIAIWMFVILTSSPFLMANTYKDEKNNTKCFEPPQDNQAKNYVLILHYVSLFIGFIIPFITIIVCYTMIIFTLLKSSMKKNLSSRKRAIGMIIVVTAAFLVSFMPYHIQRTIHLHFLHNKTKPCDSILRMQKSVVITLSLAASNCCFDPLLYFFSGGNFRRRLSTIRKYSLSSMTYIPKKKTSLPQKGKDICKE
Method: LTD4 Antagonism in Guinea Pig Ileum
Fresh segments of guinea pig ileum were suspended in 2 ml. tissue baths containing oxygenated modified Tyrodes solution. After an equilibration period, an agonist dose-response curve was generated by exposing each tissue to 4 different LTD4 doses and measuring the ensuing contractile heights. The ileum segments were washed and rested between exposures to agonist. Following this, the tissues were incubated with a single concentration of test compound and the agonist dose-response procedure was repeated. The dose ratio is a measure of the antagonist's ability to shift the agonist dose-response curve to the right. It is derived as the concentration of agonist necessary to reach a given response level in the presence (A') versus the absence (A) of antagonist. For example, if the test concentration of compound had no effect on the agonist-induced response (A'=A) the dose-ratio would approximate 1. […] One dose-ratio value is determined for each strip of ileum used to test antagonist. […] Schild analysis examines the linearity of the function described by the dose-ratios written as log [(A'/A)-1] versus antagonist concentration. If the linearity is […] and the slope approximates 1, inhibition is considered to be competitive. The pA2 is the negative log of the antagonist concentration required to produce a dose-ratio of 2. […]

[3] = biological target: T2, LTD4 receptor (guinea pig lung receptors) (Cavia porcellus, UniProt Q2NNR5); test: Leukotriene Receptor Binding Assay (LTD4 receptor binding, guinea pig lung membrane); conditions: LTD4 binding to guinea pig lung membrane receptors; read-out: LTD4 antagonism: Receptor Binding Assay (IC50)
T2 construct: isolated from guinea pig lung membrane; from tissue; host or cells: guinea pig lung membrane
T2 sequence (Q2NNR5 1-340): T1 sequence (Q2NNR5 1-340)
Method: Leukotriene Receptor Binding Assay
The in vitro LTD4 receptor binding assay is carried out as follows:
Specific binding of titrated LTD4 to a fixed number of guinea pig lung receptors, isolated from guinea pig lung membrane, is measured in the presence and absence of test compound. The initial screening dose (1×10^-5 M) is considered active if the specific binding of the LTD4 is reduced by 45% or more. Active compounds are tested in a dose-response manner to determine IC50 values.

[4] = test system: LTD4-induced bronchoconstriction; test: In Vivo Bronchoconstriction Assay (LTD4-induced intratracheal insufflation pressure increase); design: species or system guinea pig (Hartly); conditions: guinea pig, 2000 units of LTD4 IV
Method: The compounds are tested in vivo as follows. Adult male fasted Hartly guinea pigs weighing 300-350 g are pretreated with pyrilamine and indomethacin to block the bronchoconstricture effects of endogenous histamine and the synthesis of thromboxane A2 respectively. Compounds of the invention are administered IV or IG at appropriate times prior to the IV administration of 2000 units of LTD4. Intratracheal pressure is monitored prior to and subsequent to LTD4 in animals anesthetized with pentobarbital and attached to a rodent respirator. Compounds which antagonize the direct component of LTD4 action on respiratory smooth muscle inhibit intratracheal insufflation pressure increases (P< or =0.05) caused by LTD4. FPL 55712 is used as a control.

[5] = test system: human neutrophils (myeloperoxidase release); test: Human Neutrophil Degranulation Assay; assay type: cell-based; conditions: table head LTB4 antagonism (method: LTB4 5×10^-8 M or f-met-leu-phe 5×10^-6 M)
Method: (§1) Preparation of Human Neutrophils
(§2) Neutrophils are purified from venous blood of normal human donors using standard techniques of dextran sedimentation, centrifugation on Histopaque sterile solution (Sigma) and hypotonic lysis of erythrocytes (Boyum, A., Isolation of Leukocytes From Human Blood: Further Observations. Scand. J. Lab. Clin. Invest. 21 (Suppl. 97): 31, 1968). The purity of isolated neutrophils was ≥95%.
Human Neutrophil Degranulation Assay
Neutrophil degranulation was determined by measuring the release of myeloperoxidase activity into the incubation medium. Neutrophils (3×10^6) in 1 ml HBSS solution were preincubated with cytochalasin B(5μg) at 37° C. for 5 minutes, followed by preincubation with test compounds for 7 minutes. […] The supernatants and the pellet-extracts were then assayed spectrophotometrically for myeloperoxidase activity by determining the rate of decomposition of H2 O2 with o-dianisidine as hydrogen donor as described by Renlund, et al. (Renlund, D. G., MacFarlane, J. L., Christensen, R. D., Lynch, R. E., and Rothstein, G., A Quantitive And Sensitive Method for Measurement of Myeloperoxidase, Clinical Research 28:75A, 1980). Myeloperoxidase activity released into the supernatant was expressed as the percent of the average total activity (pellet plus supernatant).

LTB4 receptor = biological target: T3, LTB4 receptor (Homo sapiens, UniProt Q15722); test: LTB4 Receptor Binding Assay (human neutrophils); conditions: 0.6 nano M (3H) LTB4, 0° C., 45 minutes, read-out: LTB4 antagonism: Receptor Binding Assay (IC50)
T3 construct: Neutrophils are purified from venous blood of normal human donors; endogenous in cells; host or cells: human neutrophils from venous blood
T3 sequence (Q15722 whole entry): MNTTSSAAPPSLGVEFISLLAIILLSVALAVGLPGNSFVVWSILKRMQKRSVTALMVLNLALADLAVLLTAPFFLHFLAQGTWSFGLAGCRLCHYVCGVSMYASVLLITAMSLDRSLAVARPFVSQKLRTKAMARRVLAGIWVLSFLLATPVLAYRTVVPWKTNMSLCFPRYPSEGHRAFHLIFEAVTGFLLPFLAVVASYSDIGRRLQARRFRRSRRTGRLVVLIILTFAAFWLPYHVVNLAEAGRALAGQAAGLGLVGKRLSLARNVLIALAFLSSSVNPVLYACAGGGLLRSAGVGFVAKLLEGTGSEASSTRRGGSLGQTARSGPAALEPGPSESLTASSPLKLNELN
Method: as §1, §2
LTB4 Receptor Binding Assay
Neutrophils (4-6×10^6) in 1 ml Hanks' balanced salt solution containing 10 mM HEPES buffer (HBSS), pH 7.4 and […] nordihydroguaiaretic acid were incubated with 0.6 nano M (^3 H) LTB4 in the presence or absence of test compounds. The incubation was carried out at 0° C. for 45 minutes and terminated by adding 5 ml of ice-cold HBSS followed by rapid filtration of incubation mixture under vacuum through GF/C glass fiber filters. The filters were further washed with 10 ml HBSS and radioactivity was determined. […] All data refer to specific binding.

IC50 [1]: 8.3 µM | Kb [2]: 0.0457 µM | IC50 [3]: 6.15 µM | IC50 [5]: 7.3 µM | IC50 (LTB4 receptor): 0.8 µM
SMILES: CCCc1c(OCCCSCC2COC3(CCC(CC(=O)O)C3)S2)ccc(C(C)=O)c1O (stereo not drawn) [Example 2, 3-[[[3-(4-acetyl-3-hydroxy-2-propylphenoxy)propyl]thio]methyl]-1-oxa-4-thiaspiro[4.4]nonane-7-acetic acid]
LTD4 antagonism: In Vivo Bronchoconstriction Assay (% Inhibition at 5 mpk. IV) [4]: 94.7%

Source: patent US4870098A, “Antagonists of leukotriene D4” (G. D. Searle & Co., priority 1989, dated 1989)
